Here are results for 37 compounds from patent publication US12194050B2, “Thiadiazine derivatives” (RICHTER GEDEON NYRT., priority 2018, dated 2025).

The target in one assay is human α7 nAchR (Homo sapiens (Human), UniProt P36544). The assay can be described thus: Human α7 nicotinic acetylcholine receptor [Ca2+]i assay (PAM, Ca2+ fluorometry). Format: cell-based. The note with it: Flp-In 293 cells expressing human α7 nAchR and human RIC-3; in presence of saturating agonist (mostly PNU-282987, 1 μM). The procedure: Biological Activity Human α7 Nicotinic Acetylcholine Receptor [Ca^2+]i Assay
human α7 nAchR, sequence (P36544 23-502): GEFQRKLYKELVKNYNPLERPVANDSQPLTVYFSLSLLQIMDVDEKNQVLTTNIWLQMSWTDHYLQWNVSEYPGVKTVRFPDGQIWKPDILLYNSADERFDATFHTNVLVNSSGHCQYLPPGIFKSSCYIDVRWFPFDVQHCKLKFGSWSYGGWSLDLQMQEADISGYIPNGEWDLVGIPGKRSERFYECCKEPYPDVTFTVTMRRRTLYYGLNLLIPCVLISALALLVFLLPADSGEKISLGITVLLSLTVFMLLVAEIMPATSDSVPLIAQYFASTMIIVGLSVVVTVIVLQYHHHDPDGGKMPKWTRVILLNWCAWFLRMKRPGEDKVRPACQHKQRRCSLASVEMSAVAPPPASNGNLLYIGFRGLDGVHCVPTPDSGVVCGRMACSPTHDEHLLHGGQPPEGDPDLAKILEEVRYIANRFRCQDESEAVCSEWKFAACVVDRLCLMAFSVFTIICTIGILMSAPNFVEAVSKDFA
Cells: Flp-In 293 cells stably expressing human α7 nAchR and human RIC-3 (α7 cells, generated in house.)
Materials: 96-well plates coated with PDL (Falcon), culture medium, assay buffer, DMSO, FLIPR Calcium 5 kit (Molecular Devices), probenecid, agonist and PAM test compounds.
Brief Description of the Method (Ca^2+ Fluorometry)
α7 cells stably expressing human α7 nAchR were cultured in the medium detailed above, and were split twice a week. For the fluorometric measurements of cytosolic Ca^2+ ion concentration ([Ca^2+]i) cells were seeded in 96-well microplates at a density of 60000 cells/well and maintained overnight in a tissue culture incubator at 37° C. under an atmosphere of 95% air/5% CO2. The plating medium was identical with the culture medium. 50 μl of the growth medium was aspirated with a cell washer (BioTek Elx405UCVWS). Then 50 μl/well Calcium 5 kit diluted 2-fold in assay buffer was added manually using an 8-channel pipette. After an incubation period (20 minutes, 37° C.) 50 μl/well assay buffer containing vehicle (DMSO, 4% added) or reference α7 PAMs (4×of the final concentration) were added manually and the cells were incubated for an additional 10 minutes at 37° C. Baseline and agonist-evoked [Ca2+]i-changes were monitored with FlexStation II (Molecular Devices, Sunnyvale, Calif.), a plate reader fluorometer with integrated 8-channel fluid addition capability. Fluorescence measurements were carried out at 37° C. The dye was excited at 485 nm, emission was sampled at 525 nm at 1.4-s intervals. Baseline was recorded for 20 seconds followed by agonist stimulation. 50 μl 4× concentrated agonist solution was added to the cells using the pipettor of FlexStation II and fluorescence was monitored for an additional 40 seconds. Final DMSO concentration was 1% for all treatments. To achieve this, a series of DMSO stock solutions were prepared from all test compounds. These stocks were stored under 0° C. and were further diluted in assay buffer to obtain the desired final concentration immediately before the measurement. Agonist and PAM concentration-response studies were conducted in the presence of saturating concentrations of PAMs (mostly PNU-120596, 5 μM) and agonists (mostly PNU-282987, 1 μM), respectively. Results were expressed as ΔF/F values using SoftMax Pro software (Molecular Devices), where F was the resting fluorescence preceding agonist application and ΔF was the increase in fluorescence at a given time (ΔF=maximum fluorescence intensity values after stimulation minus average fluorescence intensity values before stimulation). In all experiments, all treatments were measured in multiple wells in parallel, and the mean ΔF/F values were used for analysis.

A further assay concerns Male NMRI mice. The assay can be described thus: Place recognition test (Y-maze), reversal of scopolamine-induced amnesia. Format: in vivo. The note with it: scopolamine 1 mg/kg i.p. The procedure: In Vivo Pharmacology (Place Recognition Test)
Animals: Male NMRI mice (Toxicoop, Hungary)
Substances: Scopolamine was dissolved in saline and administered at 1 mg/kg dose i.p. Test compounds were administered 30 minutes before the acquisition trial (T1) and scopolamine after the acquisition trial at a volume of 0.1 ml/10 g.
Procedure: The task was carried out in a transparent plexiglass Y-maze (each arm has a length of 40 cm, an inner width of 11 cm and a height of 30 cm). Numerous visual cues were placed around the arms and were kept constant during the experiment. The test consisted of two trials (T1 and T2) separated by an intertrial interval of 30 minutes. Mice were placed in the starting arm of the maze at the beginning of each trial. In T1, one of the symmetric arms of the maze was closed (it will be novel in T2) and the animals were allowed to explore the maze for 5 minutes (acquisition phase). In T2, mice had free access to all three arms for 2 minutes (retrieval phase). The time spent with exploration in the novel and familiar arms during T2 was measured. Differences between the exploration times spent in the familiar vs. novel arms of the maze for each group were evaluated by MANOVA, followed by Duncan post hoc test.
Significant differences (^+p<0.05; ^++p<0.01; ^+++p<0.001) were observed between the exploration times spent in the novel vs. familiar arms of the maze.

Regarding `COc1ccc(C2=NS(=O)(=O)N(C)C(C(=O)Nc3cccc(C)c3)=C2)cc1OC` [Example 1, 5-(3,4-dimethoxyphenyl)-2-methyl-N-(3-methylphenyl)-1,1-dioxo-2H-1λ^6,2,6-thiadiazine-3-carboxamide], the EC50 (in general, the concentration that produces a half-maximal response) on human α7 nAchR came out at 430 nM. Further, the “reversal of the scopolamine-induced amnesia; significance of exploration time novel vs. familiar arm” value is given as “++ (++p < 0.01)” in the assay on Male NMRI mice (1 mg/kg i.p.), “+++ (+++p < 0.001)” in the assay on Male NMRI mice (3 mg/kg i.p.) and “+++ (+++p < 0.001)” with Male NMRI mice (10 mg/kg i.p.).
For the compound `CCN1C(C(=O)Nc2cccc(OC)c2)=CC(c2ccc(OC)c(C(F)(F)F)c2)=NS1(=O)=O` [Example 37], the EC50 on human α7 nAchR was 45 nM. For the same compound, the “reversal of the scopolamine-induced amnesia; significance of exploration time novel vs. familiar arm” value was “+++ (+++p < 0.001)” in the assay on Male NMRI mice (1 mg/kg i.p.), “++ (++p < 0.01)” in the assay on Male NMRI mice (3 mg/kg i.p.) and “+++ (+++p < 0.001)” in the assay with Male NMRI mice (10 mg/kg i.p.).
For `COc1ccc(C2=NS(=O)(=O)N(C(C)C)C(C(=O)Nc3cccc(C(F)(F)F)n3)=C2)cc1OC` [Example 91], the EC50 on human α7 nAchR turned out to be 35 nM. For the same compound, the “reversal of the scopolamine-induced amnesia; significance of exploration time novel vs. familiar arm” value in the assay on Male NMRI mice (1 mg/kg i.p.) is “+++ (+++p < 0.001)”; in the assay on Male NMRI mice (3 mg/kg i.p.), “+ (+p < 0.05)”; with Male NMRI mice (10 mg/kg i.p.) it was “+++ (+++p < 0.001)”.
Regarding `CCN1C(C(=O)Nc2cccc(C(F)(F)F)n2)=CC(c2ccc(OC)c(OC)c2)=NS1(=O)=O` [Example 33], on human α7 nAchR, the EC50 came to 50 nM. Besides, the “reversal of the scopolamine-induced amnesia; significance of exploration time novel vs. familiar arm” value with Male NMRI mice (1 mg/kg i.p.) was “+++ (+++p < 0.001)”; in the assay with Male NMRI mice (3 mg/kg i.p.), “++ (++p < 0.01)”; in the assay on Male NMRI mice (10 mg/kg i.p.), “++ (++p < 0.01)”.
Consider `Cc1cccc(NC(=O)C2=CC(c3ccc4c(c3)c(C)nn4C)=NS(=O)(=O)N2C)c1` [Example 21], for which, at human α7 nAchR, the EC50 is 230 nM. In addition, the “reversal of the scopolamine-induced amnesia; significance of exploration time novel vs. familiar arm” value was “++ (++p < 0.01)” in the assay on Male NMRI mice (1 mg/kg i.p.), “+++ (+++p < 0.001)” in the assay on Male NMRI mice (3 mg/kg i.p.) and “++ (++p < 0.01)” in the assay with Male NMRI mice (10 mg/kg i.p.).
In the case of `CC(C)N1C(C(=O)Nc2cccc(F)n2)=CC([C@H]2CC[C@H](C(F)(F)F)CC2)=NS1(=O)=O` [Example 125], the EC50 on human α7 nAchR came out at 45 nM.
With `CCN1C(C(=O)Nc2cccc(C(F)(F)F)c2)=CC(c2ccc(OC)c(C)c2)=NS1(=O)=O` [Example 44], the EC50 at human α7 nAchR was 360 nM.
Take `CCN1C(C(=O)Nc2cccc(C(F)(F)F)c2)=CC(C2CCC(F)(F)CC2)=NS1(=O)=O` [Example 51]: the EC50 on human α7 nAchR came out at 810 nM.
As to `CCN1C(C(=O)Nc2cncc(C(F)(F)F)c2)=CC([C@H]2CC[C@H](C(F)(F)F)CC2)=NS1(=O)=O` [Example 58], the EC50 on human α7 nAchR was determined as 1200 nM.
The same measure, in the same setting: to `COc1ccc(C2=NS(=O)(=O)N(CC3CC3)C(C(=O)Nc3cccc(C(F)(F)F)n3)=C2)cc1OC` [Example 103] belongs 110 nM.
Still for that read-out and setting: the value for `CCCN1C(C(=O)Nc2cccc(C(F)(F)F)c2)=CC(c2cc(OC)c(OC)cc2F)=NS1(=O)=O` [Example 96] was 330 nM; that for `CCN1C(C(=O)Nc2cccc(C(F)(F)F)c2)=CC([C@H]2CC3C[C@@H]3C2)=NS1(=O)=O` (stereo partly shown) [Example 52] was 1600 nM; that for `CC(C)N1C(C(=O)Nc2cncc(F)n2)=CC([C@H]2CC[C@H](C(F)(F)F)CC2)=NS1(=O)=O` [Example 138] was 140 nM.
As to `C=CCN1C(C(=O)Nc2cccc(C(F)(F)F)c2)=CC(c2ccc(OC)c(OC)c2)=NS1(=O)=O` [Example 121], at human α7 nAchR, the EC50 turned out to be 220 nM.
In the case of `COc1ccc(C2=NS(=O)(=O)N(C)C(C(=O)Nc3cccc(C(C)=O)c3)=C2)cc1OC` [Example 4], the EC50 at human α7 nAchR came to 980 nM.
For the compound `CCN1C(C(=O)Nc2cccc(C(F)(F)F)n2)=CC([C@H]2CC[C@H](C)CC2)=NS1(=O)=O` [Example 67], the EC50 on human α7 nAchR came to 220 nM.
On to `CCN1C(C(=O)Nc2ccc(Cl)c(OC)c2)=CC(c2ccc(OC)c(OC)c2)=NS1(=O)=O` [Example 35], for which, on human α7 nAchR, the EC50 was 150 nM.
On the same count and under the same terms, to `O=C(Nc1ccnc(C(F)(F)F)n1)C1=CC([C@H]2CC[C@H](C(F)(F)F)CC2)=NS(=O)(=O)N1CC1CC1` [Example 137] belongs 130 nM; to `COc1ccc(C2=NS(=O)(=O)N(CC3CC3)C(C(=O)Nc3cccc(C(F)(F)F)c3)=C2)cc1C` [Example 105], 120 nM.
The same measure, in the same setting: the value for `CCc1cccc(NC(=O)C2=CC(c3ccc(OC)c(OC)c3)=NS(=O)(=O)N2C)c1` [Example 5] was 210 nM.
Regarding `CCCCn1cc(NC(=O)C2=CC(c3ccc(OC)c(OC)c3)=NS(=O)(=O)N2C)cn1` [Example 86, N-(1-butyl-1H-pyrazol-4-yl)-5-(3,4-dimethoxyphenyl)-2-methyl-1,1-dioxo-2H-1λ^6,2,6-thiadiazine-3-carboxamide], the EC50 at human α7 nAchR was 2900 nM.
Same read-out and setting: the value for `CCN1C(C(=O)Nc2ccc(C)cc2)=CC(c2ccc(OC)c(C)c2)=NS1(=O)=O` [Example 46] was 170 nM; that for `COCCN1C(C(=O)Nc2cccc(F)n2)=CC(C2CCC(F)(F)CC2)=NS1(=O)=O` [Example 131] was 1800 nM; that for `COc1ccc(C2=NS(=O)(=O)N(C(C)C)C(C(=O)Nc3cccc(C(F)(F)F)c3)=C2)cc1OC` [Example 89] was 290 nM.
The same measure, in the same setting: the value for `CCN1C(C(=O)Nc2cccc(C#N)n2)=CC([C@H]2CC[C@H](C(F)(F)F)CC2)=NS1(=O)=O` [Example 76] was 85 nM; that for `CCN1C(C(=O)Nc2ccc(C)c(C)c2)=CC(c2ccc(OC)c(OC)c2)=NS1(=O)=O` [Example 34] was 130 nM; that for `CCCn1ccc(NC(=O)C2=CC(c3ccc(OC)c(OC)c3)=NS(=O)(=O)N2C)n1` [Example 85, 5-(3,4-dimethoxyphenyl)-2-methyl-1,1-dioxo-N-(1-propyl-1H-pyrazol-3-yl)-2H-1λ^6,2,6-thiadiazine-3-carboxamide] was 2000 nM.
Same read-out and setting: to `COc1ccc(C2=NS(=O)(=O)N(C)C(C(=O)Nc3ccnc(C)c3)=C2)cc1OC` [Example 15] belongs 3000 nM.
With `CCN1C(C(=O)Nc2cccc(C(F)(F)F)c2)=CC(c2ccc(OC)c(OC)c2)=NS1(=O)=O` [Example 31], at human α7 nAchR, the EC50 was 440 nM.
Same read-out and setting: the value for `COc1ccc(C2=NS(=O)(=O)N([C@H]3CCOC3)C(C(=O)Nc3cccc(C(F)(F)F)n3)=C2)cc1OC` [Example 83] was 310 nM.
Same read-out and setting: to `COc1ccc(C2=NS(=O)(=O)N(C)C(C(=O)Nc3cccc(F)c3)=C2)cc1OC` [Example 19] belongs 1600 nM; to `COc1cc(C2=NS(=O)(=O)N(C)C(C(=O)Nc3cccc(C)c3)=C2)ccc1Cl` [Example 28], 1200 nM.
Consider `CCN1C(C(=O)Nc2ccc(C(F)(F)F)cn2)=CC([C@H]2CC[C@H](C(F)(F)F)CC2)=NS1(=O)=O` [Example 59], for which, at human α7 nAchR, the EC50 turned out to be 1300 nM.
Turning to `COc1ccc(C2=NS(=O)(=O)N(C)C(C(=O)Nc3cccc(C)c3)=C2)cc1C` [Example 24], the EC50 on human α7 nAchR was 210 nM.
Still for that read-out and setting: the value for `COc1ccc(C2=NS(=O)(=O)N(C)C(C(=O)Nc3cccc(C(F)(F)F)c3)=C2)cc1Cl` [Example 26] was 360 nM; that for `CCN1C(C(=O)Nc2cccc(F)n2)=CC(C2CCCCC2)=NS1(=O)=O` [Example 74] was 1100 nM; that for `COc1ccc(NC(=O)C2=CC(c3ccc(OC)c(OC)c3)=NS(=O)(=O)N2C)cc1` [Example 11] was 440 nM.
